Data from patent US20230212571A1, “COMPOSITIONS AND METHODS FOR DELIVERING POLYNUCLEOTIDES” (NeOnc Technologies, Inc., priority 2020, published 2023).

Legend:
AVM-BEC [1] = test: Immunostaining of MMP2 and MMP9 in AVM-BEC; format: cell-based, human
Description: Immunostaining was performed as previously described^15. (Virrey J J, Golden E B, Sivakumar W, et al. Glioma-associated endothelial cells are chemoresistant to temozolomide. J Neurooncol. 2009; 95(1):13-22). Primary antibodies used were rabbit anti-MMP2, mouse anti-MMP9 (1:150, Abgent), rabbit anti-phospho-Smad1/5 (Ser463/465) (1:50, Abgent), rabbit anti-BMP4, rabbit anti-PAI-1 (1:50, Proteintech), rabbit anti-VEGF (1:50, Santa Cruz Biotechnology), rabbit anti-HIF-1α (1:50, Cell Signaling Technology), and rabbit anti-phospho-Smad3 (Ser423/425) (1:50, GeneTex). Secondary antibodies used were biotinylated anti-rabbit and biotinylated anti-mouse (1:300, Vector Laboratories), accordingly. Pictures were taken in an Eclipse 80i microscope (Nikon). Images shown are representative of three-five independent experiments.

AVM-BEC [2] = test: Biotinylated miR-18a uptake analysis in AVM-BEC; format: cell-based, human; details: biotinylated probes, 30 min at 37° C., no transfection reagent, Ago-2 0.4 nM when indicated
Description: Biotinylated hsa-miR-18a-5p sense and hsa-miR-18a-3p sense probes were acquired from Integrated DNA Technologies (IDT) and reconstituted in RNAse-free water. A scramble sequence of the miR-18a was designed using GenScript®, and the biotinylated probe using this sequence was also acquired from IDT and reconstituted in RNAse-free water. […] Then, media was replaced by fresh media containing the corresponding probes without Lipofectamine, and AVM-BEC were incubated for 30 min at 37° C. in shear flow conditions. When indicated, Ago-2 (0.4 nM, Abcam) was co-administered with the probes as the microRNA carrier and stabilizer^1. Cells were then washed with PBS and fixed with 4% paraformaldehyde (PFA). Avidin/Biotin blocking kit (Vector Laboratories) was used to block unspecific bindings, and cells were incubated with Alexa Fluor 488 streptavidin (1:200, Thermo Fisher Scientific) for 1 h at room temperature to detect the tagged microRNAs. DAPI (Thermo Fisher Scientific) was used to detect cell nuclei. Cells were mounted with Dako Fluorescence Mounting Medium. Pictures were taken in a Zeiss LSM 510 confocal microscope (Carl Zeiss Inc.).

hsa-miR-18a-5p (UAGGUGCAUCUAGUGCAGAUAG; chemistry not given here; listed as Homo sapiens) [small non-coding RNA molecule involved in post-transcriptional regulation of gene expression; Dharmacon]
MMP9 expression (immunostaining) (AVM-BEC [1]): did not decrease
uptake: levels of miR-18a detected inside the AVM-BEC and their nuclei (AVM-BEC [2]): enough to obtain AVM-BEC uptake
